Results published in PMC4640066 (Nature Communications, 2015).

Key:
human γ-tubulin = molecular target: T1, human γ-tubulin (Homo sapiens, UniProt P23258); assay: Inhibition of GTP binding of γ-tubulin (α-[32P]-GTP crosslinking assay); details: 60 μM compound; 70 nM γ-tubulin, 100 nM α-[32P]-GTP; mean±s.d.
T1 construct: myc (C); 6His (C); made in house; host or cells: Sf21 insect cells (baculovirus)
Experimental: For analysis of the effect of drugs on GTP binding of γ-tubulin, 70 nM of purified human γ-tubulin in GTP-binding buffer (50 mM MES, 5 mM MgCl2, 1 mM EGTA, pH 6.6) was incubated with or without compounds for 15 min at 20 °C. A final concentration of 100 nM of α-[^32P]-GTP was added and incubated at 20 °C for 30 min. After incubation, bound α-[^32P]-GTP was crosslinked to γ-tubulin for 60 s by illumination with a ultraviolet lamp using CL-1000 Ultraviolet Crosslinker. Protein with the crosslinked GTP was separated from unbound nucleotide by TCA precipitation and SDS–PAGE, and ^32P labelling was measured using a Typhoon FLA-7000 (General Electronic Company). Band intensities were quantified with the ImageJ software.

α/β-tubulin = molecular target: T2, α/β-tubulin (Sus scrofa, UniProt P02550+P02554); assay: MT dynamics in vitro by TIRF microscopy of single MTs; assay type: biochemical, porcine; details: 30 μM, 5 μM tubulin, GMPCPP seeds
T2 construct: α/β-Tubulin was purified from porcine brain; from tissue; host or cells: porcine brain
T2 sequence (P02550 whole entry): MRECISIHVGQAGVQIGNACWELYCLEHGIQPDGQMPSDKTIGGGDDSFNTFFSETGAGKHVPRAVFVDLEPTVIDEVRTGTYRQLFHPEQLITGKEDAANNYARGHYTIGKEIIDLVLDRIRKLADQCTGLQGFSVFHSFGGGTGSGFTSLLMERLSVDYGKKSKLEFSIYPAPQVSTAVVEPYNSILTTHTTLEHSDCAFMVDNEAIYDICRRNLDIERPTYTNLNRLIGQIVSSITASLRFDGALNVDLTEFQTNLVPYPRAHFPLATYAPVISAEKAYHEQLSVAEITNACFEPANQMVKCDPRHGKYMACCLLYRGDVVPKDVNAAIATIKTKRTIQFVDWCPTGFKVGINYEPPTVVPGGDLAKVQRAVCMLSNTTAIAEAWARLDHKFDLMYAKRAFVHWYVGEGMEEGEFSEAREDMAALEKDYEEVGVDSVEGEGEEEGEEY
T2 sequence (P02554 whole entry): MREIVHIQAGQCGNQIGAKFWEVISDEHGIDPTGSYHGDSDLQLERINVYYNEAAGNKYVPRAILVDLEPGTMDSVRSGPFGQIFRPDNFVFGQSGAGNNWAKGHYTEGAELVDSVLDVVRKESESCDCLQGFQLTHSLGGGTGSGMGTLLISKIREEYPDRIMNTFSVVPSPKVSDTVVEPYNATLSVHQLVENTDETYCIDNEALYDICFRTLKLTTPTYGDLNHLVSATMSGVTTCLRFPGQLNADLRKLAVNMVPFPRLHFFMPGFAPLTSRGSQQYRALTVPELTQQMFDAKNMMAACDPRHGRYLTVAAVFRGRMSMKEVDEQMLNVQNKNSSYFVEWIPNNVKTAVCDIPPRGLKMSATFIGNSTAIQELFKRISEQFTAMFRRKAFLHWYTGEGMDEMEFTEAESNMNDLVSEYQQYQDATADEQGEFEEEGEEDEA
Experimental: Purified α/β-tubulin was labelled with tetramethylrhodamine Succinimidyl Ester (C-1171, Life Technologies), Alexa Fluor 647 NHS Ester (A-20106, Life Technologies) or NHS-LC-biotin (21336, Life Technologies) as described. Briefly, α/β-tubulin was polymerized to form MTs. Then, the MTs were centrifuged, resuspended in labelling buffer containing NHS-conjugated dye or biotin. After the labelling reaction, two cycles of polymerization and depolymerization were performed to obtain active α/β-tubulin.
GMPCPP MT seeds were prepared by copolymerization of non-labelled tubulin, tetramethylrhodamine-labelled tubulin and biotin-labelled tubulin with 0.2 mM GMPCPP to yield the rhodamine and biotin labelling ratio 2% and 3%, respectively. GMPCPP was prepared enzymatically from GMPCP (M3170, Sigma-Aldrich) and nucleotide diphosphate kinase (N0379, Sigma-Aldrich)[35]. The glass chambers for observation were prepared as follows. […] The images of MTs were observed under total internal reflection fluorescence microscopy (IX81, Olympus) with a × 100 objective lens (UPlanSApo, numerical aperture (NA) 1.40, Olympus) and recorded at the frame rate of two frames per second using iXon3 EM CCD camera (Andor). […]

HeLa cells [1] = assay: γ-Tubulin localization on centrosomes; assay type: cell-based, human; details: interphase and mitotic HeLa cells, 6 h
Experimental: Supplementary Figure 8. Impact of gatastatin on γ-tubulin localization in HeLa cells (a-d) γ-Tubulin localization on centrosome in gatastatin treated HeLa cells. (a) Gatatstatin-treated interphase cells (for 6 h) were analyzed. Red, green and blue in the merged image represent pericentrin, γ-tubulin and DNA, respectively. Scale bar, 5 µm. (b) The γ-tubulin signal around pericentrin in (a) was calculated using ImageJ software from 250 (control) and 166 (gatastatin) centrosomes. Error bars represent S.D. Two-tailed, un-paired Student’s t-test was used to obtain P values. (c) Gatatstatin-treated mitotic cells (for 6 h) were analyzed. Red, green and blue in the merged image represent pericentrin, γ-tubulin and DNA, respectively.
Scale bar, 5 µm. (d) The γ-tubulin signal on pericentrin in (c) was calculated using ImageJ software from 59 (control) and 98 (gatastatin) centrosomes. Error bars represent S.D. Two-tailed, un-paired Student’s t-test was used to obtain P values. γ-Tubulin and pericentrin antibodies were purchased from Sigma (GTU-88, Cat# T6557) and Abcam (Cat# ab4448), respectively.
(1 picture or pasted object on this page, not shown here)

HeLa cells [2] = assay: Spindle length of MG132-arrested metaphase cells; assay type: cell-based, human; details: 30 μM, 2 h in the presence of MG132, HeLa
Experimental: Exponentially growing HeLa cells were treated with 30 μM of gatastatin for 9 h. Cells were fixed with cold MeOH (−20 °C). Immunostaining was performed as described above using anti-α-tubulin (1:250 dilution, Santa Cruz, Cat# sc-32293) and anti-pericentrin (1:250 dilution, Abcam, Cat# ab4448) antibodies. After staining with Alexa^488-conjugated anti-mouse IgG (1:2,000 dilution, Invitrogen, Cat#A11001) and Alexa^568-conjugated anti-rabbit IgG (1:2,000 dilution, Invitrogen, Cat#A11011), cells were washed four times with PBS and mounted with PBS containing 0.1 μg ml^−1 DAPI. Spindle structure was observed under a Leica LAS AF 6000 fluorescence microscope (Leica Microsystems). Images of 41 sections at 0.251-μm intervals were collected. The position of the two pericentrin signals of mitotic cells was analysed using the ImageJ software, and then their distance was calculated.
For analysis of the length of the bipolar spindle in MG132-treated cells, HeLa cells were arrested at prometaphase with 10 μM of STLC for 15 h, followed by STLC removal by washing the cells with the medium three times to remove STLC. […]
Immunostaining was performed as described above using anti-α-tubulin (1:250 dilution, Santa Cruz, Cat# sc-32293) and anti-pericentrin (1:250 dilution, Abcam, Cat# ab4448) antibodies. Spindle structure was observed under a Leica LAS AF 6000 fluorescence microscope (Leica Microsystems). […]

T1 sequence (P23258 whole entry): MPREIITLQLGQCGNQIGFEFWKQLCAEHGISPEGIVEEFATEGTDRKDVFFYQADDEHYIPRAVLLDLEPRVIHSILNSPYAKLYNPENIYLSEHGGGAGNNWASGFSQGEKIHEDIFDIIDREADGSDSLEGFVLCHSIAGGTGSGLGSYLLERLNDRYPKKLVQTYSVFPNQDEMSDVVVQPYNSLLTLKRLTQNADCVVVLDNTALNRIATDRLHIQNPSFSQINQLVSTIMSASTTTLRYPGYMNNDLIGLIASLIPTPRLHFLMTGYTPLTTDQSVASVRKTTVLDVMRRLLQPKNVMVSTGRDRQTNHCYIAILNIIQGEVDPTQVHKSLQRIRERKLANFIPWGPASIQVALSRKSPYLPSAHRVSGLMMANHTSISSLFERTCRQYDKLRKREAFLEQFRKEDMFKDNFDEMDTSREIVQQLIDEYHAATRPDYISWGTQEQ

- GTP binding (control %) (human γ-tubulin): 6.7±3.7%
- Effect on MT growth velocity (TIRF analysis of single MTs) (α/β-tubulin): did not affect MT growth velocity
SMILES: COc1cc2c(=O)c(-c3cc(OC)c4c(c3OC)OCO4)coc2cc1OCc1ccccc1 [Gatastatin, O^7-demethylbenzyl AG1]
- γ-Tubulin localization to centrosomes (HeLa cells [1]): not affected
- Reduction of the length of the metaphase spindle compared with the control (HeLa cells [2]): 22%
